Measured values published in patent US20090255006A1, “Transgenic Zebrafish” (University of Georgia Research Foundation, Inc., priority 2008, published 2009).
Entries after “also recorded” stand apart in the source; their conditions may differ. Read-outs that look alike come from different tables or passages of the source. Values belong to the molecule of their own block, whether it stands above or below them.

Columns and labels:
Nodal receptors [1] = settings: cited from earlier work
Nodal receptors [2] = assay: Block of Nodal signaling with SB-505124 in Tg-SqtapGFPi embryos, gfp in situ hybridization; assay type: in vivo, zebrafish; settings: 50 μM
sqt and cyc transcripts = assay: Targeted injection of morpholinos into the YSL, morphology of live embryos; assay type: in vivo, zebrafish; settings: 8 ng MO into YSL at 3 hpf
Description: Wild-type embryos were obtained from natural crosses of Wik fish. Collected embryos were maintained at 28.5° C. and staged according to morphological criteria (Kimmel et al., Dev. Dyn., 203:253-310 (1995). Translation blocking morpholinos against sqt and cyc have been described previously (Feldman and Stemple, Genesis, 30: 175-177 (2001); Karlen and Rebagliati, Genesis, 30: 126-128 (2001). The MO sequences are as follows: sqtMO: 5′-[…]-3′ (SEQ ID NO:1); sqtMIS: ATcTgAAAATgAAGcTAATAATgCAC-3′ (SEQ ID NO:2); cycMO: 5′-[…]-3′ (SEQ ID NO:3); cycMIS: 5′-GCcACTgCGAaGTGTGgTcAT-3′(SEQ ID NO:4). Nucleotides in lower case represent mismatches. The sqtMOs were tagged with lissamine, while the cycMOs were tagged with fluorescein. Embryos were injected with each MO at 3 hpf soon after formation of the YSL. The distribution of the MO in the YSL was verified 2 h after injection. Embryos with mislocalized MOs were removed from the experiments.
To test if sqt and cyc are required in the YSL, their function in this tissue was specifically knocked down by targeted injection of antisense morpholinos (MOs) directed against sqt and cyc transcripts. […] When cyc function alone is depleted from the YSL, all embryos have normal shields (100%, N=36) (FIG. 5E, arrow). At 24 hpf, the cyc-depleted embryos, are indistinguishable from embryos injected with control MOs (100%, N=22) (FIG. 5F). When sqt function is depleted from the YSL, by contrast, the majority of embryos lack the embryonic shield ([…], N=11) (FIG. 5G).

- overall levels of gfp expression (Nodal receptors [2]): reduced
Molecule: Cc1cccc(-c2[nH]c(C(C)(C)C)nc2-c2ccc3c(c2)OCO3)n1 [SB-505124]
- phenotype of treated embryos (Nodal receptors [1]; 50 μM, added to embryos at 3 hpf or earlier): sufficient to phenocopy embryos lacking nodal-related gene function
- phenotype of treated embryos (Nodal receptors [1]; later treatments, or lower doses): milder phenotypes
- gfp expression in the EVL (Nodal receptors [2]): reduced, but not eliminated; also recorded: reduced to a greater extent
- gfp expression in the YSL (Nodal receptors [2]): consistently reduced, but not completely eliminated; also recorded: persists
- gfp expression in the blastomeres (Nodal receptors [2]): eliminated; also recorded: reduced to a greater extent

Molecule: cycMO: translation blocking morpholino against cyc, 5′-GCGACTCCGAGCGTGTGCATGATG-3′ (SEQ ID NO:3), tagged with fluorescein (all phosphorodiamidate morpholino (PMO); fluorescein tag, position not given here)
- embryos with normal shields (sqt and cyc transcripts; 6 hpf): 100%
- embryos indistinguishable from embryos injected with control MOs (sqt and cyc transcripts; 24 hpf): 100%

Molecule: sqtMO: translation blocking morpholino against sqt, 5′-ATGTCAAATCAAGGTAATAATCCAC-3′ (SEQ ID NO:1), tagged with lissamine (all phosphorodiamidate morpholino (PMO); lissamine tag, position not given here)
- embryos lacking the embryonic shield (sqt and cyc transcripts; 6 hpf): 54%
- embryos displaying mild cyclopia (sqt and cyc transcripts; 24 hpf): 16%
